3 compounds from patent US12697316B2, “Combination therapy with acetyl-leucine and miglustat” (INTRABIO LTD., priority 2019, dated 2026) can be followed below.

For experiment [1], the system named is Npc1^−/− mice. The experiment is described as follows: Accelerating Rotarod motor function in Npc1−/− mice. The format is in vivo, mouse. The following applies: Npc1−/− mice treated from 3 weeks, assessed at 8 weeks, vs untreated Npc1−/−. (In the rotarod test animals must keep their balance on a rotating rod.)
Protocol: The mice were housed under non-sterile conditions, with food and water available ad libitum.
The weight and activity of each mouse was recorded weekly until reaching the humane endpoint (defined as a loss of 1 g body weight within 24 h). […] Motor function was measured using an accelerating NG Rota Rod for mice (Ugo Basile) starting from 1 rpm to 10 rpm, accelerating every 30 seconds by one rpm.
Experiment [2] concerns Npc1^−/− mice. The experiment is described as follows: Lipid storage (GSLs, sphingoid bases) in forebrain and cerebellum of Npc1−/− mice. The following applies: Npc1−/− mice treated from 3 weeks, 59 days of age. Further details: concentration or dose not given beside the values. It is filed as in vivo, mouse. The protocol:
(§1) ADLL and enantiomers (ADLL: Molekula #73891210, ALL: Sigma Aldrich #441511, ADL: Sigma #A0876) were administered as dry admix in powdered mouse diet (PicoLab Rodent Diet 20/5053, LabDiet) at a dose of 0.1 g/kg/day for in vivo studies. Treatment groups for in vivo study consisted of at least 5 mice per group. In vitro studies were conducted with each compound dissolved in PBS to generate a 50 mM stock solution and diluted to a 1 mM working concentration in media (DMEM High Glucose-Gibco #10566016).
Biochemical and immunohistochemical analyses. Mice were saline perfused under terminal anaesthesia. Tissues for biochemical analysis were snap-frozen on ice-cold isopentane. For immunofluorescent staining, tissues were perfused with 4% PFA followed by PBS and kept in 4% PFA for 24h and stored in PBS containing 20% sucrose longer term. Brains were cut parasagitally (20 micron sections) and stored in 30% ethylene glycol, 30% glycerol 0.1 M sodium phosphate buffer (pH 7.4) at −20° C. Biochemical analysis was performed on water-homogenised tissues (50 mg/ml) and protein content was determined using a BCA protein assay (Thermo Fisher #23227) according to the manufacturer's instructions.
Sphingoid Base Measurements: Sphingoid bases (sphingosine and sphinganine) were extracted from 100 uL tissue homogenates in 500 uL of chloroform:methanol (1:2v/v) followed by sonication for 10 minutes at room temperature. Subsequently, 1 M 500-uL sodium chloride, 500 uL chloroform, and 3 M 100 uL sodium hydroxide were added to the samples, and vortexed every five minutes for 15 minutes at room temperature. Homogenates were centrifuged (13,000 g for 10 minutes) and the lower organic phase retained. Sphingoid bases were purified from the samples by pre-equilibrating SPA-NH2 columns with 2×1 mL chloroform followed by sample elution with 3×300 ul acetone. The samples were dried under nitrogen. Lipids were resuspended in 50 uL pre-warmed ethanol (37° C.) and 50 uL OPA labelling solution (1 mg OPA/20 uL Ethanol/1 uL 2-mercaptoethanol; dilution 1:2000 in 3% boric acid pH 10.5) was added. Samples were kept at room temperature in the dark for 20 minutes and vortexed every 10 minutes. Samples were buffered with 100 uL methanol: 5 mM Tris pH 7 (9:1) and centrifuged at 5,000 g for 2 minutes. Supernatants (150 uL) were loaded onto a reverse phase HPLC. Chromatography was carried out using a mobile phase of 85% acetonitrile/15% H2O at a flow rate of 1.0 ml/min. The orthophthaldehyde-labelled derivatives were monitored at an excitation wavelength of 340 nm and an emission wavelength of 450 nm. Quantification of trace peak area was carried out using EZChrom Elite software v3.2.1.
Glycosphingolipid measurements: Glycosphingolipids were extracted and measured by NP-HPLC according to published methods. Tissue homogenates in chloroform/methanol (C:M) (1:2 v/v) overnight at 4° C. The mixture was centrifuged (3000 rpm/10 min) and 1 mL chloroform and 1 mL PBS were added to the supernatant and centrifuged (3000 rpm/10 min). The lower phase was dried under N2, resuspended in 50 uL C:M 1:3 v/v and combined with the upper phase. Subsequently, GSLs were recovered using C18 Isolute columns (100 mg) (Biotage) pre-equilibrated with 4×1 mL MeOH and 2×1 mL H2O. Samples were washed 3×1 mL H2O and eluted with 1 mL C:M 98:2, 2×1 mL C:M 1:3, 1 mL MeOH. The column eluate was dried under N2, resuspended in 100 uL C:M 2:1, dried again under N2 and resuspended in ceramide glycanase (CGase) buffer (50 mM sodium acetate pH 5.5, 1 mg/mL sodium taurodeoxycholate). 50 mU CGase was added, and samples incubated at 37° C. overnight. Released oligosaccharides were anthranilic acid (2-AA) labelled and purified by mixing with 1 mL Acetonitrile: H2O 97:3 and added to Discovery DPA-6S columns (SUPELCO, # 52625-U) pre-equilibrated with 1 mL acetonitrile, 2×1 mL H2O, and 2×1 mL acetonitrile. Columns were washed with 2×1 mL Acetonitrile: H2O 95:5 v/v, and eluted in 2×0.75 mL H2O. […]

The test system of experiment [3] is Npc1^−/− Chinese Hamster Ovary (CHO) cells. The experiment is described as follows: Lysotracker Green relative lysosomal volume (FACS) in NPC1 null CHO cells. The format is cell-based. Particulars: 1 mM. On the procedure:
Wild type and NPC1 null Chinese Hamster Ovary (CHO) cells were kindly provided by Chris Wassif (NIH).
as §1
Lysotracker Green and Propidium Iodide Staining of CHO cells: In vitro FACS experiments were performed in order to measure relative acidic compartment volume staining live cells with LysoTracker™ Green DND-26 (Thermo Fisher-L7526) at 250 nM for 10 minutes in PBS at RT, centrifuged at 1200 rpm for 10 min and cells resuspended in FACS buffer (PBS, 1% BSA, 0.1% NaN3 sodium azide). Cells were stained with propidium iodide (20 nM) (Invitrogen-P3566) immediately prior to analysis on the FACS for dead cell discrimination. FACS analysis was performed on 10,000 recorded cells using FACS Canto (Becton Dickinson, (BD)) with BD software.

For the compound `CC(=O)N[C@@H](CC(C)C)C(=O)O` [ALL, N-acetyl-L-leucine], in the experiment with Npc1^−/− mice [1], the Rotarod performance result was “significant improvement”. In the experiment with Npc1^−/− mice [2], the “reduction of GA1 in cerebellum” value came to 23.5%, the “reduction of GA2 in cerebellum” value is on record as 23.8%, the “reduction of GM1a in forebrain” value is listed as 20.1% and the “reduction of GM2 in forebrain” value came out at 19.6%. Also, in experiment [3] (24 h), the “reduction of relative lysosomal volume” value is 16%. In addition, in experiment [3] (72 h), the “reduction of relative lysosomal volume” value worked out at 22.8%.

Turning to `CC(=O)NC(CC(C)C)C(=O)O` (racemic) [ADLL, N-acetyl-DL-leucine], the Rotarod performance result with Npc1^−/− mice [1] is given as “significant improvement”. Moreover, the “reduction of GA2 in cerebellum” value in the experiment on Npc1^−/− mice [2] was 21.3%. Moreover, the “reduction of sphinganine levels in forebrain” value in the experiment with Npc1^−/− mice [2] amounted to 13.5%. Further, the “reduction of relative lysosomal volume” value in experiment [3] (24 h) was determined as 16.9%; in experiment [3] (72 h), 24%.

For `CC(=O)N[C@H](CC(C)C)C(=O)O` [ADL, N-acetyl-D-leucine], in the experiment with Npc1^−/− mice [1], the Rotarod performance result is reported as “no significant benefit”. For the same compound, in the experiment with Npc1^−/− mice [2], the “reduction of sphinganine in cerebellum” value was determined as 42.3% and the “reduction of sphinganine levels in forebrain” value came to 18.2%. The “reduction of relative lysosomal volume” value in experiment [3] (72 h) is listed as 22.3%.
